What follows are compounds tested against T1, human IKK-β (Homo sapiens, UniProt O14920) (assay: IKK-β kinase inhibitory assay). Conditions: compounds as yielded by solid phase synthesis, purity about 40 to 90%, read-out: In vitro activity grade (In vitro IC50).
T1 construct: A cDNA fragment encoding human IKK-β open reading frame was generated by PCR; His tag (from pcDNA3.1/His C); made in house; host or cells: Sf21 insect cells (baculovirus); substrate made in E. coli
T1 sequence (O14920 1-756): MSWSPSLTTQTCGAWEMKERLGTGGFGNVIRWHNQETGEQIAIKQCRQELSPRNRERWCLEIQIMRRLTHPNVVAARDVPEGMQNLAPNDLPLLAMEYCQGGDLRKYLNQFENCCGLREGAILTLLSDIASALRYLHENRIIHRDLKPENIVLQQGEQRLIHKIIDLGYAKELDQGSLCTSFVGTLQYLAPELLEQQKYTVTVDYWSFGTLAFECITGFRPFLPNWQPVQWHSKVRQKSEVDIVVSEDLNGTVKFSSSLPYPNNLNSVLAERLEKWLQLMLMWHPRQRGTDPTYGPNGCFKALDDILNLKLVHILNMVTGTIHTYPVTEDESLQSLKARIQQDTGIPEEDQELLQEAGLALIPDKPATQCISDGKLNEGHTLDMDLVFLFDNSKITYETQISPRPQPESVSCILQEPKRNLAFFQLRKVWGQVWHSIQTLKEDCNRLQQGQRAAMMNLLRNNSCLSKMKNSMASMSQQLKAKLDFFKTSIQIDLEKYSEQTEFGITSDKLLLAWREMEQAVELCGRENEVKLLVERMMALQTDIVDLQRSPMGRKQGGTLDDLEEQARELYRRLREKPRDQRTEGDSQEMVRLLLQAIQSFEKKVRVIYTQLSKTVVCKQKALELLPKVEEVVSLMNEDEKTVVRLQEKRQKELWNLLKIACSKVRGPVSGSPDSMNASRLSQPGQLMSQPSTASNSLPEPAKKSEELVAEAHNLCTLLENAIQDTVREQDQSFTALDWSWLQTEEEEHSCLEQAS
Type: biochemical
Summary of the method: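 Radiometric read-out: streptavidin capture of 33P-labelled bio-GST-IκBα(1-54), 0.2 μM, after a 2 h room-temperature reaction started with ATP/[γ-33P]ATP. Enzyme was recombinant His-tagged human IKK-β expressed in Sf21 insect cells, used at 0.6 μg/ml in Tris-HCl pH 7.6/MgCl2 kinase buffer. Compounds added in 2.5% DMSO.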

Compound | IC50 [nM]
O=c1[nH]c2nc(-c3c(O)cccc3OCC3CC3)cc(C3CCCNC3)c2cc1[N+](=O)[O-] (centres unmarked) [Example 25-05] | < 500
N#Cc1cc2c(C3CCCNC3)cc(-c3c(O)cccc3OCC3CC3)nc2[nH]c1=O (centres unmarked) [Example 25-06] | < 500
O=c1[nH]c2nc(-c3c(O)cccc3OCC3CC3)cc(C3CCCNC3)c2cc1S(=O)(=O)c1ccccc1 (centres unmarked) [Example 25-07] | < 500
NC(=O)c1cc2c(C3CCCNC3)cc(-c3c(O)cccc3OCC3CC3)nc2[nH]c1=O (centres unmarked) [Example 25-08] | < 500
CCOC(=O)C1Cc2c(C3CCCNC3)cc(-c3c(O)cccc3OCC3CC3)nc2NC1=O (centres unmarked) [Example 26-03] | < 500
CCOC(=O)C1Cc2c(C3CCNCC3)cc(-c3c(O)cccc3OCC3CC3)nc2NC1=O (centres unmarked) [Example 26-04] | < 500
NC(=O)C1Cc2c(C3CCCNC3)cc(-c3c(O)cccc3OCC3CC3)nc2NC1=O (centres unmarked) [Example 26-05] | < 500
CCCOc1cccc(O)c1-c1cc(C2CCCNC2)c2c(n1)NC(=O)C(C(=O)OCC)C2 (centres unmarked) [Example 26-06] | < 500
CCCOc1cccc(O)c1-c1cc(C2CCCNC2)c2c(n1)NC(=O)CC2 (centres unmarked) [Example 27-02] | < 500
O=C1CCc2c(C3CCCNC3)cc(-c3c(O)cccc3OCC3CC3)nc2N1 (centres unmarked) [Example 27-03, 7-[2-(cyclopropylmethoxy)-6-hydroxyphenyl]-5-(3-piperidinyl)-3,4-dihydro-1,8-naphthyridin-2(1H)-one] | < 500
O=C1CCc2c(C3CCNCC3)cc(-c3c(O)cccc3OCC3CC3)nc2N1 [Example 27-04] | < 500
CCCOc1cccc(O)c1-c1cc(C2CCNCC2)c2c(n1)NC(=O)CC2 [Example 27-05] | < 500
CNC(=O)c1cc2c(C3CCCNC3)cc(-c3c(O)cccc3OCC3CC3)nc2[nH]c1=O (centres unmarked) [Example 31-03] | < 500
CN(C)C(=O)c1cc2c(C3CCCNC3)cc(-c3c(O)cccc3OCC3CC3)nc2[nH]c1=O (centres unmarked) [Example 31-04] | < 500
O=C(c1cc2c(C3CCCNC3)cc(-c3c(O)cccc3OCC3CC3)nc2[nH]c1=O)N1CCCC1 (centres unmarked) [Example 31-05] | < 500
O=C(NCc1ccccc1)c1cc2c(C3CCCNC3)cc(-c3c(O)cccc3OCC3CC3)nc2[nH]c1=O (centres unmarked) [Example 31-06] | < 500
COCCNC(=O)c1cc2c(C3CCCNC3)cc(-c3c(O)cccc3OCC3CC3)nc2[nH]c1=O (centres unmarked) [Example 31-07] | < 500
O=C(c1cc2c(C3CCCNC3)cc(-c3c(O)cccc3OCC3CC3)nc2[nH]c1=O)N1CCOCC1 (centres unmarked) [Example 31-08] | < 500
O=C(c1cc2c(C3CCCNC3)cc(-c3c(O)cccc3OCC3CC3)nc2[nH]c1=O)N1CCNCC1 (centres unmarked) [Example 31-09] | < 500

Compound | IC50 [nM]
CC(C)NC(=O)c1cc2c(C3CCCNC3)cc(-c3c(O)cccc3OCC3CC3)nc2[nH]c1=O (centres unmarked) [Example 31-10] | < 500
CN(C)CCNC(=O)c1cc2c(C3CCCNC3)cc(-c3c(O)cccc3OCC3CC3)nc2[nH]c1=O (centres unmarked) [Example 31-11] | < 500
O=C(NC1Cc2ccccc2C1)c1cc2c(C3CCCNC3)cc(-c3c(O)cccc3OCC3CC3)nc2[nH]c1=O (centres unmarked) [Example 31-12] | < 500
O=C(NC(c1ccccc1)c1ccccc1)c1cc2c(C3CCCNC3)cc(-c3c(O)cccc3OCC3CC3)nc2[nH]c1=O (centres unmarked) [Example 31-13] | < 500
C[C@H](NC(=O)c1cc2c(C3CCCNC3)cc(-c3c(O)cccc3OCC3CC3)nc2[nH]c1=O)c1ccccc1 (some centres unmarked) [Example 31-14] | < 500
C[C@@H](NC(=O)c1cc2c(C3CCCNC3)cc(-c3c(O)cccc3OCC3CC3)nc2[nH]c1=O)c1ccccc1 (some centres unmarked) [Example 31-15] | < 500
C[C@H](NC(=O)c1cc2c(C3CCCNC3)cc(-c3c(O)cccc3OCC3CC3)nc2[nH]c1=O)C(=O)O (some centres unmarked) [Example 31-16] | < 500
O=C(NCCc1ccccc1)c1cc2c(C3CCCNC3)cc(-c3c(O)cccc3OCC3CC3)nc2[nH]c1=O (centres unmarked) [Example 31-17] | < 500
O=C(NC1CCCCC1)c1cc2c(C3CCCNC3)cc(-c3c(O)cccc3OCC3CC3)nc2[nH]c1=O (centres unmarked) [Example 31-18] | < 500
O=C(NCC1CCCCC1)c1cc2c(C3CCCNC3)cc(-c3c(O)cccc3OCC3CC3)nc2[nH]c1=O (centres unmarked) [Example 31-19] | < 500
O=C(NCCO)c1cc2c(C3CCCNC3)cc(-c3c(O)cccc3OCC3CC3)nc2[nH]c1=O (centres unmarked) [Example 31-20] | < 500
O=C(NC1CC1)c1cc2c(C3CCCNC3)cc(-c3c(O)cccc3OCC3CC3)nc2[nH]c1=O (centres unmarked) [Example 31-21] | < 500
O=C(NC1CCC1)c1cc2c(C3CCCNC3)cc(-c3c(O)cccc3OCC3CC3)nc2[nH]c1=O (centres unmarked) [Example 31-22] | < 500
O=C(NC1CCCC1)c1cc2c(C3CCCNC3)cc(-c3c(O)cccc3OCC3CC3)nc2[nH]c1=O (centres unmarked) [Example 31-23] | < 500
O=C(NC1CCCCCC1)c1cc2c(C3CCCNC3)cc(-c3c(O)cccc3OCC3CC3)nc2[nH]c1=O (centres unmarked) [Example 31-24] | < 500
CCC(CC)NC(=O)c1cc2c(C3CCCNC3)cc(-c3c(O)cccc3OCC3CC3)nc2[nH]c1=O (centres unmarked) [Example 31-25] | < 500
CCCC(CCC)NC(=O)c1cc2c(C3CCCNC3)cc(-c3c(O)cccc3OCC3CC3)nc2[nH]c1=O (centres unmarked) [Example 31-26] | < 500
O=C(NCC(F)(F)F)c1cc2c(C3CCCNC3)cc(-c3c(O)cccc3OCC3CC3)nc2[nH]c1=O (centres unmarked) [Example 31-27] | < 500

Results, then the compound that gave them:

IC50 [nM] | Compound
2000 to 10000 | N#Cc1c(N2CCCC(C(N)=O)C2)cc(-c2ccccc2O)nc1N (centres unmarked) [Example 34-06]
< 500 | N#Cc1c(NC2CCNCC2)cc(-c2ccccc2O)nc1N [Example 34-07]
500 to 2000 | N#Cc1c(N2CCCNCC2)cc(-c2ccccc2O)nc1N [Example 34-08]
< 500 | N#Cc1c(N2CCNCC2)cc(-c2ccccc2O)nc1N [Example 34-09]
< 500 | N#Cc1c(NCCN)cc(-c2ccccc2O)nc1N [Example 34-10]
< 500 | N#Cc1c(NCCCN)cc(-c2ccccc2O)nc1N [Example 34-11]
< 500 | CNCCNc1cc(-c2ccccc2O)nc(N)c1C#N [Example 34-12]
< 500 | N#Cc1c(NCCNCc2ccccc2)cc(-c2ccccc2O)nc1N [Example 34-13]
< 500 | N#Cc1c(NCCNCc2ccccc2)cc(-c2c(O)cccc2OCC2CC2)nc1N [Example 34-15]
< 500 | N#Cc1c(NCCNC(=O)c2ccccc2)cc(-c2c(O)cccc2OCC2CC2)nc1N [Example 34-16]
< 500 | N#Cc1c(NCCNS(=O)(=O)c2ccccc2)cc(-c2c(O)cccc2OCC2CC2)nc1N [Example 34-17]
< 500 | N#Cc1c(NCCNC(=O)Nc2ccccc2)cc(-c2c(O)cccc2OCC2CC2)nc1N [Example 34-18]
< 500 | CC(=O)NCCNc1cc(-c2c(O)cccc2OCC2CC2)nc(N)c1C#N [Example 34-19]

Source: patent publication US6984649B1, “Pyridine derivatives” (Bayer Aktiengesellschaft, priority 2000, dated 2006)
